Laboratory results published in patent publication US6149937A, “Liposome encapsulated amphiphilic drug compositions” (priority 1996, dated 2000).
Read-outs that look alike come from different tables or passages of the source. *1 amine or outer side, *2 acyl side, *3 side chain or, on linkers, in order; H or OH if unused. Where a SMILES comes first, the peptide text is derived from it. Bridges are numbered along the chain shown (N, C = ends). Roman numbers before positions name the chains, in order. [ ]: non-standard residue; d: D form. Actinocin(9to1) = Cc1c2oc3c(C)ccc(C(=O)[*:1])c3nc-2c(C(=O)[*:2])c(N)c1=O; NMeV = CN[CH](C(=O)O)C(C)C; Sar = CNCC(=O)O

Columns and labels:
[1] = cited from earlier work
[2] = cited from earlier work; remark: listed apart in the source
[3] = cited from earlier work; remark: listed apart in the source
[4] = cited from earlier work; remark: listed apart in the source
[5] = not given; remark: listed apart in the source
[6] = 10 ml PBS pH 7.4
[7] = EPC/oxine 4.8, pH 7.4
[8] = test system: bacteria; settings: References 30-33; listed as oxine; cited from earlier work
[9] = Entrapment of tin(II) dioxinate into MLVs; format: physicochemical
Experimental: Egg yolk phosphatidylcholine (14.4 mg, 18.3 μmol) and cholesterol (5.6 mg, 13.7 μmol) were dissolved in chloroform with 0.1, 0.2, 0.3, 0.4, 0.5 mg (1.2 μmol) and 0.6 mg tin(II) dioxinate. After evaporation of the solvent, hydration occurred with NaCl 150 mM 1 ml. The MLVs thus prepared were washed 5 times in order to discard free tin(II) dioxinate.
The number of tin(II) dioxinate molecules inserted into liposomes increased with the number of SnOx2 molecules present in the preliposomal lipid film. Liposomal saturation occurred for a number of moles averaging 1.23 μmoles SnOx2 inserted into 18.3 μmoles EPC (EPC/SnOx2 mole ratio of 15) with an encapsulation efficiency of 30% for MLVs.

[10] = Release of tin(II) dioxinate from MLVs at pH 7.4; format: physicochemical
[11] = Cell membrane permeation predicted by TAMMO combined with liposomal entrapment and release assays; settings: concluded from TAMMO and liposome assays
[12] = not given; remark: listed apart in the source
[13] = cited from earlier work; for animal or human results of liposome association: lipid-layer encapsulated
[14] = Crystals in liposomal BP^0 formulations; format: physicochemical
Experimental: These films were hydrated by 1 ml buffer at pH 8.1 and suspended as MLVs with bupivacaine crystals inside and outside the phospholipid […] by freeze-etching electron microscopy. […] This film was suspended as MLVs in 1 ml buffer pH 8.1. […] No crystals were detected from the ratio 17 and above (Table VII).

[15] = not told
[16] = Rate of release of BP^+ from MLVs at pH 7.4; format: physicochemical
Experimental: A further preparation of liposomal BP^+ pH 6.5 prepared as described above was inserted into a dialysis bag (5 ml containing 353.25 mg EPC and 25 mg BP^+). The bag was immersed in 145 ml PBS pH 7.4 with a renewal rate of 23 ml/hour. Samples of the pH 7.4 medium were harvested at different times and the concentration of bupivacaine was measured by UV spectrophotometry.

[17] = Entrapment of BP^+ into MLVs; format: physicochemical; settings: for encapsulation efficiency: EPC/BP^+ 6, pH 6.5
Experimental: The bupivacaine concentration was measured by UV spectrophotometry at 271.6 nm. After extraction of BP^+ in chloroform with EPC, 27.5 mg of cholesterol were added thereto. After evaporation of the organic solvent under an inert atmosphere and drying of the lipid film, hydration was carried out at pH 6.5. The encapsulation efficiency was measured by UV spectrophotometry at 271.6 nm.

[18] = Release of bupivacaine from the liposomal BP^0 formulation at pH 7.4; format: physicochemical
[19] = pH 7.8
[20] = pH 7.4, 37° C.
[21] = Entrapment of MP^+ into MLVs; format: physicochemical; settings: EPC/morphine 98, pH 4.5, n=5, referred to 1 mg initially dissolved
[22] = MP^0 release from MLVs (dialysis bag, PBS pH 7.4); format: physicochemical
[23] = formulation with crystals, pH 7.4

Clc1cccc(Cl)c1N=C1NCCN1 [Clonidine, clonidine]
duration of hypotensive action ([1]; human, in vivo): 1 days | Log Poct ([2]; octanol/water): 1.59 | solubility in organic solvents [3]: soluble in octanol when uncharged | solubility in aqueous medium ([3]; water or acidic solution): highly soluble in acidic solution as a cation | pK / pKa [4]: 8.2 | encapsulation efficiency (14.4 mg EPC, 0.5 mg CL^0, pH 7.8, n=6): 14.5%±0.4 | leakage from vesicles after 1 hour ([5]; pH 7.4, after 1 hour): Almost all

CCN(CC)CCOC(=O)c1ccc(N)cc1 [Procaine, procaine]
Log Poct ([2]; octanol/water): -1.7

Oc1cccc2cccnc12 [Oxine, 8-hydroxyquinoline]
time of release of a bulk of the liposomal compound [6]: 20 min | partition coefficient octanol/water ([2]; not logarithmic): 67 | oxine entrapped in MLVs [7]: 50% | oxine entrapped in MLVs ([7]; from 0.7 mg): 0.35 mg | bactericidal activity (words) [8]: acts as a bactericidal agent by crossing the bacterial cell membrane

CCCN(CC)C(CC)C(=O)Nc1c(C)cccc1C (centres unmarked) [Etidocaine, etidocaine]
Log Poct ([2]; octanol/water): 2.1

tin(II) dioxinate
SnOx2 inserted at liposomal saturation ([9]; 18.3 μmoles EPC): ~1.23 µmol | EPC/SnOx2 mole ratio at saturation ([9]; MLVs): 15 | encapsulation efficiency ([9]; MLVs, EPC/SnOx2 15): 30% | AE (encapsulation efficiency) ([9]; Table III, PL/X 6): 30% | Release ([10]; Table III, PL/X 6): > 72 h | Release ([10]; pH 7.4, for at least one week): no release | ability to cross cell membranes [11]: unable to cross the cell membrane | limit of solubility in chloroform ([12]; chloroform): 400 µM | limit of solubility in chloroform ([12]; chloroform with epc): 4100 µM

CCCCNc1ccc(C(=O)OCCN(C)C)cc1 [Tetracaine, tetracaine]
Log Poct ([2]; octanol/water): 0.6

Cc1cccc(C)c1NC(=O)C1CCCCN1C (centres unmarked) [Mepivacaine, mepivacaine]
Log Poct ([2]; octanol/water): -0.1 | pKs ([4]; Table II): 7.76

CCOC(=O)C1(c2ccccc2)CCN(C)CC1 [Meperidine, meperidine]
Log Poct ([2]; octanol/water): 1.3

CCCNC(C)C(=O)Nc1ccccc1C (centres unmarked) [Prilocaine, prilocaine]
Log Poct ([2]; Table II): -0.05

Cc1c2oc3c(C)ccc(C(=O)NC4C(=O)NC(C(C)C)C(=O)N5CCCC5C(=O)N(C)CC(=O)N(C)C(C(C)C)C(=O)OC4C)c3nc-2c(C(=O)NC2C(=O)NC(C(C)C)C(=O)N3CCCC3C(=O)N(C)CC(=O)N(C)C(C(C)C)C(=O)OC2C)c(N)c1=O (centres unmarked) [actinomycin D] (I: TVP[Sar][NMeV] / II: TVP[Sar][NMeV]; ester I:1-I:C, II:1-II:C; linker I:N-II:N via Actinocin(9to1); configuration not given here)
animal or human results of liposome association [13]: promising animal or effective human results

CCCCN1CCCCC1C(=O)Nc1c(C)cccc1C (centres unmarked) [Bupivacaine, bupivacaine]
plasma level at which systemic toxicity becomes apparent ([1]; human, in vivo): ~1600 ng/mL | therapeutic concentration ([1]; human, in vivo): 1 µg/mL | duration of analgesic action ([1]; peripheral nerve blocks): up to 12 hours | Log Poct ([2]; Table II): 1.4 | Log Poct ([2]; Table III): 3.6 | log of the partition coefficient between water and octanol ([2]; clonidine: octanol/buffer pH 7.4): 1.8 | animal or human results of liposome association [13]: promising animal or effective human results

CCCCN1CCCCC1C(=O)Nc1c(C)cccc1C (centres unmarked) [BP^0]
Crystals ([14]; EPC/BP ratio 17 and above): No crystals | Crystals ([14]; EPC/BP ratio up to 16): presence of bupivacaine crystals | Crystals ([14]; EPC/BP^0 ratio 13 or above): without crystals | Crystals ([14]; EPC/BP^0 ratio 17): 0 | Crystals ([14]; EPC/BP^0 ratio 20): 0 | Crystals ([14]; EPC/BP^0 ratio 22): 0 | Crystals ([14]; EPC/BP^0 ratio 25): 0 | sensory block ([13]; BP^+ in liposomal aqueous phase, Reference 13): prolongation of the sensory block | motor block ([13]; BP^+ in liposomal aqueous phase, Reference 29): outlasted the analgesic action | ability to cross cell membranes [15]: able to cross cell membranes | duration of release ([16]; 1 ml formulation, pH 7.4): 24 to 48 h | time to maximal concentration ([16]; 1 ml formulation, pH 7.4): 6 to 12 h | duration of release ([16]; 5 ml formulation in dialysis bag, pH 7.4): 72 h | rapid transfer of unencapsulated bupivacaine ([16]; 6 hour, 5 ml in dialysis bag, pH 7.4): 25% | Release ([16]; Table III, PL/X 5): 72 h | AE (encapsulation efficiency) ([17]; Table III, PL/X 5): 75% | encapsulation efficiency ([17]; after 2 hours): 60±1% | encapsulation efficiency ([17]; after 24 hours): 74±0.5% | BP^+ inserted into MLVs ([17]; from 5 mg BP^+, 70.65 mg EPC): 3.7 mg | Release ([18]; Table III, PL/X 5): 24 to 48 h | release compared with crystal-containing formulation ([18]; crystal-free): slower | peak concentration ([18]; crystal-free, 230.56 mg EPC, 5 mg BP^0, pH 7.4): 5 to 8 µg/mL | time to complete clearance ([18]; crystal-free, pH 7.4): 3 days | time to peak ([18]; crystal-free, pH 7.4): 6 h | maximal concentration ([18]; formulation with crystals, 14.4 mg EPC, 5 mg BP^0, pH 7.4, 37° C.): 7 to 8 µg/mL | time to maximal concentration [18, 23]: 6 to 12 h | time to release of the whole amount [18, 23]: 2 days

Clc1cccc(Cl)c1NC1=NCCN1 [CL^0]
proportion of species [19]: 28.5% | proportion of species ([19]; listed as CL^+): 71.5% | AE (encapsulation efficiency) (Table III, PL/X 5): 14.5% | Release ([5]; Table III, PL/X 5): 0.5 h

CCN(CC)CCOC(=O)c1ccc(N)cc1Cl [Chlorprocaine, chlorprocaine]
Log Poct ([2]; Table II): -0.8

CN1CC[C@]23c4c5ccc(O)c4O[C@H]2[C@@H](O)C=C[C@H]3[C@H]1C5 [Morphine, morphine]
duration of action ([1]; intramuscular, epidural or intrathecal): ≥ 12 h

CN1CC[C@]23c4c5ccc(O)c4O[C@H]2[C@@H](O)C=C[C@H]3[C@H]1C5 [MP^0]
duration of slow decrease of concentration [20]: 3 days | time to maximal concentration [20]: 1 h | encapsulation [21]: 31.2±2.1% | crystals in the dialysis bag at the end of release ([22]; EPC/MP^0 10): No crystals | Release ([22]; EPC/MP^0 10, 26 and 52): sustained and prolonged | duration of release ([22]; EPC/MP^0 10, pH 7.4): 48 h | duration of release ([22]; EPC/MP^0 26, pH 7.4): 30 h | duration of release ([22]; EPC/MP^0 52, pH 7.4): 24 h | Release ([22]; Table III, PL/X 10): 48 h | Release ([22]; Table III, PL/X 26): 30 h | Release ([22]; Table III, PL/X 52): 24 h
